In patent publication US9814732B2, “Ulipristal acetate for prevention and treatment of breast tumors” (LABORATOIRE HRA-PHARMA, priority 2012, dated 2017):
Values belong to the compound of their own block, whether it stands above or below them.

Legend:
hPR-A and hPR-B = assay: MMTV-Luc reporter gene transactivation in HBE cells transfected with hPR-A and/or hPR-B; format: cell-based, human
PR = target: T1, PR (Homo sapiens, UniProt P06401); assay: MMTV-Luc reporter gene transactivation in T-47D cells; format: cell-based; set-up: constitutively expressed high amounts of PR (progesterone receptor); endogenous in cells; host or cells: T-47D
T1 sequence (P06401 1-933): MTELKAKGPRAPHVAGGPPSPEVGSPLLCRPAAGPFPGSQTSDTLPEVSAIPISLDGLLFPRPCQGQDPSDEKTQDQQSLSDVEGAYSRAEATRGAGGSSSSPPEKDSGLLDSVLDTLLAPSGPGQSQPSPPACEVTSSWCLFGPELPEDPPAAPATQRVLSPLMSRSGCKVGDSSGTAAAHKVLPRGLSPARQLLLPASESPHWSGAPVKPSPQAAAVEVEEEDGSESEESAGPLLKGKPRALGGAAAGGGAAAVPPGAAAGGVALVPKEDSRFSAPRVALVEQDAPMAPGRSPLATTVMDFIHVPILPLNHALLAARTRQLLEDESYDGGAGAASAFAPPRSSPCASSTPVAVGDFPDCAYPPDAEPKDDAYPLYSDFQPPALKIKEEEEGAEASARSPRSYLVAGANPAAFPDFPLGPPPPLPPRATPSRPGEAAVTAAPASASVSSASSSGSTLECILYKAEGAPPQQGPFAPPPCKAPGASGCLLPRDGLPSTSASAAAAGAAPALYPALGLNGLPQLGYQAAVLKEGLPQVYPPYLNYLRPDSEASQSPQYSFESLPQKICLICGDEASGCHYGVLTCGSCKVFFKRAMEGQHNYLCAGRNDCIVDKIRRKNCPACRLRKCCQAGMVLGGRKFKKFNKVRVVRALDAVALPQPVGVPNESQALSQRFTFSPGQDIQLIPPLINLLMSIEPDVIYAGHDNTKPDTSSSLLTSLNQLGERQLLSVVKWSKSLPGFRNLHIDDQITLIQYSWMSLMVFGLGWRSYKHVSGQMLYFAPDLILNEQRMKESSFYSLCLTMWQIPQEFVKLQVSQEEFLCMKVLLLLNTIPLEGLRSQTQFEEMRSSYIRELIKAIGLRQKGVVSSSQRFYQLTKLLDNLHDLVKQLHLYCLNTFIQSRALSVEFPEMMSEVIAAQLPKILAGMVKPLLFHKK

[1] = system: metastatic breast cancers; settings: cited from earlier work; for disease stabilization / objective response rate: 123 postmenopausal women, second or third line, mifepristone or onapristone pooled
HBCx-34 tumors = settings: model characterisation; cited from earlier work
[2] = system: normal human breast tissues xenografts; assay: Ki67 mitotic index in normal human breast tissue xenografted in athymic mice; format: in vivo; settings: 28 days
Text: Breast tissues samples were obtained from 6 women (aged 29-42 years) undergoing surgery for reduction mammoplasty, with their informed consent according to the French law on clinical experimentation.
(§1) Four weeks old ovariectomized female NMRInu/nu 20 athymic mice were purchased from Janvier laboratory (Le Genest Saint Isle, France). Breast tissues samples were obtained from 6 women (aged 29-42 years). Human mammary gland tissue was cut into 2×2×2 mm fragments and 4 fragments were then subcutaneously xenografted onto the back of 4 mice per group. Four treatment groups were performed: control, E2, E2+P and E2+P+UPA. Treatments were administered by grafting steroid pellets onto the neck of each mouse. The experimental conditions were initially determined by using a dose range of hormones mixed with cholesterol into the pellets. Blood sample assays were performed after 2 weeks and 4 weeks of treatment to measure plasmatic hormonal concentrations. Finally, the dose of 0.3 mg for E2 and 20 mg for P and UPA were used, as it provides the expected blood concentrations. For the control groups, pellets containing only cholesterol were used. To reproduce menstrual cycle conditions, mice were grafted on the first day of experiment with cholesterol, E2 and/or UPA containing pellets and on the fourteen day with cholesterol or progesterone containing pellets in control and E2 groups, or in E+P and E2+P+UPA groups, respectively. Twenty eight days after the start of experiment, mice were sacrificed. Blood was collected for each mouse, and serum was frozen at −20° C. until hormone concentrations
Mitotic index was calculated using the Ki67 antibody, and was determined for each breast tissue grafted into mice. Immunohistochemical analyses were performed using the BOND-MAX workstation (Leica, Nanterre, France). Paraffin sections of breast tissue xenografts were de-waxed and rehydrated before antigen retrieval using citrate retrieval solution (pH 6.0) for Ki67 antibody or EDTA retrieval solution (pH 9.0) for PR and ERalpha antibodies, for 30 min. […]

[3] = Hormone concentrations in serum of pellet-treated athymic mice; format: in vivo; settings: female, NMRI nu/nu athymic, mouse, other: steroid pellets grafted onto the neck, E2 0.3 mg pellet, day 28, read-out: concentration in mice serum (mean±SEM)
Method: as §1
Estradiol was measured by radioimmunoassay using Clinical Assays Estradiol-2 (Sorin Biomedica Diagnostics SpA, Saluggia, Italia). Progesterone levels were evaluated by UPLC-MSMS using Acquity UPLC and Quattro Premier XE (Waters, Milford Mass., USA).
UPA concentrations were measured using LC-MS/MS technique by MPI Research (State College, Pa., USA).

GR [4] = target: T2, GR (Homo sapiens, UniProt P04150); assay: GRE-Luc reporter gene transactivation in HBE cells; format: cell-based; settings: DEX 100 nM, test compound 100 nM, read-out: inhibition of DEX induced luciferase transactivation (GRE-Luc)
T2 sequence (P04150 1-777): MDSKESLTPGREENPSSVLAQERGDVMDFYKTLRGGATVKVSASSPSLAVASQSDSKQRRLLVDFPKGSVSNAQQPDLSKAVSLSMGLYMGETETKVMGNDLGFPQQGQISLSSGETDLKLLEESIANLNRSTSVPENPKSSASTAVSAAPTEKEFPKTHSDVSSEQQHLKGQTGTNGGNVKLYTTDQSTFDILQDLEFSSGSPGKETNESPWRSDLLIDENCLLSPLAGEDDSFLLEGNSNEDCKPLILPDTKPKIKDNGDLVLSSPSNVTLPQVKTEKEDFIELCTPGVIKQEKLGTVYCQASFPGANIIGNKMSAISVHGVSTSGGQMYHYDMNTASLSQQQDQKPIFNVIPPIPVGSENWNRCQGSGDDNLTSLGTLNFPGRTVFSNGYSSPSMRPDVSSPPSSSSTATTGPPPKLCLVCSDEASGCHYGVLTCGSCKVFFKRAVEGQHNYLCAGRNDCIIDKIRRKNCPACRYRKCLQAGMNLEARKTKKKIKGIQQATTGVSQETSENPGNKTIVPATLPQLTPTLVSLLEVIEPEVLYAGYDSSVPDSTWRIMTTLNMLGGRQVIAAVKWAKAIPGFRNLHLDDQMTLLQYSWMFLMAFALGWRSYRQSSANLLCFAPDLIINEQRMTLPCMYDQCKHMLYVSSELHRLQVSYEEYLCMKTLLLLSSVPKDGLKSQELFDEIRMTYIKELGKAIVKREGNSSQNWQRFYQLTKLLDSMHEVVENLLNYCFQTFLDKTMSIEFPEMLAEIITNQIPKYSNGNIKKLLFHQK

GR [5] = target: T2, GR; assay: GRE-Luc reporter gene transactivation in MCF-7 cells; format: cell-based; set-up: endogenous in cells; host or cells: MCF-7; settings: MCF7, DEX 100 nM, test compound 100 nM, read-out: inhibition of DEX-induced luciferase transactivation (GRE-Luc)

Compound: CC#C[C@]1(O)CC[C@H]2[C@@H]3CCC4=CC(=O)CCC4=C3[C@@H](c3ccc(N(C)C)cc3)C[C@@]21C [RU-486, mifepristone]
inhibition of P induced MMTV-Luc transactivation (hPR-A and hPR-B; HBE cells co-transfected with hPR-A and hPR-B, P 100 nM, antagonist 1 to 1000 nM): inhibited P induced MMTV11 Luc transactivation in a dose dependent manner from 1 000 to 10 nM
progestational agonist properties on reporter gene transcription (hPR-A and hPR-B; HBE cells, compound alone): did not exhibit progestational agonist properties
PR antagonist response on MMTV-Luc transactivation at 1 nM (PR; P 100 nM, antagonist 1 nM): Partial antagonist responses
PR antagonist action on MMTV-Luc transactivation (PR; P 100 nM, antagonist 1000 to 10 nM): potent PR antagonist actions from 1000 to 10 nM
progestational agonist properties on reporter gene transcription (PR; compound alone): did not exhibit progestational agonist properties
disease stabilization [1]: 43%
objective response rate [1]: 11%
side effects that stopped clinical studies [1]: anti-glucocorticoid

Compound: CCCCCOC(=O)Nc1nc(=O)n([C@@H]2O[C@H](C)[C@@H](O)[C@H]2O)cc1F [capecitabine]
responsiveness of the HBCx-34 tumor (HBCx-34 tumors): responsive

Compound: CC(=O)O[C@@]12CO[C@@H]1C[C@H](O)[C@@]1(C)C(=O)[C@H](O)C3=C(C)[C@@H](OC(=O)[C@H](O)[C@@H](NC(=O)OC(C)(C)C)c4ccccc4)C[C@@](O)([C@@H](OC(=O)c4ccccc4)[C@H]21)C3(C)C [docetaxel]
responsiveness of the HBCx-34 tumor (HBCx-34 tumors): responsive

Compound: CN(C)c1ccc([C@H]2C[C@]3(C)[C@@H](CC[C@]3(O)CCCO)[C@@H]3CCC4=CC(=O)CCC4=C32)cc1 [onapristone]
disease stabilization [1]: 43%
objective response rate [1]: 11%
side effects that stopped clinical studies [1]: liver toxic

Continued, in another order:

concentration at 28 days [3]: 0.0369 ± 0.00425 ng/mL
Compound: C[C@]12CC[C@@H]3c4ccc(O)cc4CC[C@H]3[C@@H]1CC[C@@H]2O [E2, 17β estradiol]
proliferative activity (Ki67) in lobules ([2]; E2 treated group vs control group): slightly but not significantly increased
mitotic index (Ki67) in ducts ([2]; E2 treated group, p<0.05): 3.1±0.7 fold induction compared to the control group

inhibition at 0.1 µM (GR [4]): 18.1 ± 11.8%
inhibition at 0.1 µM (GR [5]): 26.5 ± 9.1%
Compound: CNc1ccc([C@H]2C[C@@]3(C)[C@@H](CC[C@]3(OC(C)=O)C(C)=O)[C@@H]3CCC4=CC(=O)CCC4=C32)cc1 [CDB-3877]
